Here are results for 27 molecules from US10072001B2, “Tank-binding kinase inhibitor compounds” (Gilead Sciences, Inc., priority 2014, dated 2018).

Test [1] has as its target IKKε (Homo sapiens (Human), UniProt Q14164). The test is described as follows: TR-FRET kinase assay, IKKε. It is filed as biochemical. The note with it: full length recombinant IKKε 0.3 nM, 2x Km ATP, 1 μM peptide, 240 min at 25° C.; geometric mean of minimum four determinations. An excerpt: Biological Assay for TBK1 and IKKs:
(Time-resolved FRET reads energy transfer from a long-lived donor to a nearby acceptor.)

Test [2] concerns the target TBK1 (Homo sapiens (Human), UniProt Q9UHD2). Description: TR-FRET kinase assay, TBK1. As to conditions: read-out: TBK1-IC50; full length recombinant TBK1 2.5 nM, 2x Km ATP, 1 μM peptide, 240 min at 25° C.; geometric mean of minimum four determinations.

The structures appear in SMILES notation. Some results are limits rather than exact numbers.

IKKε, sequence (Q14164 whole entry): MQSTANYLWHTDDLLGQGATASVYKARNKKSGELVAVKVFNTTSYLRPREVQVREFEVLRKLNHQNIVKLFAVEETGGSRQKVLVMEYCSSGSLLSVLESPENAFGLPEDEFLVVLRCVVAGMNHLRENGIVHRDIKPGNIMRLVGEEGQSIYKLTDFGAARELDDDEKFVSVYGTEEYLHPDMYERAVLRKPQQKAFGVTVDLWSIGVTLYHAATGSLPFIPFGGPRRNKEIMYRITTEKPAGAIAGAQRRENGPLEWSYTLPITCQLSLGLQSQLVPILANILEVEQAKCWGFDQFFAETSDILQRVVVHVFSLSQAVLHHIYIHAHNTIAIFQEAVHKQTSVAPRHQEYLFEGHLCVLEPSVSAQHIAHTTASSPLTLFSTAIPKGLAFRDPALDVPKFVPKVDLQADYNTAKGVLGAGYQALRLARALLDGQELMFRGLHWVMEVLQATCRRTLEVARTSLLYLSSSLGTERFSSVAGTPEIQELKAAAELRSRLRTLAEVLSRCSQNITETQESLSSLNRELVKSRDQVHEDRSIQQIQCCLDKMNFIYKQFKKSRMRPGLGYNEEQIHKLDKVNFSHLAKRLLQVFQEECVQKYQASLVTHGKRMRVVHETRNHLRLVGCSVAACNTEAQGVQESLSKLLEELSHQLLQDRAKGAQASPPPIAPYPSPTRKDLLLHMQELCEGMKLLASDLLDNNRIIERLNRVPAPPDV
TBK1, sequence (Q9UHD2 whole entry): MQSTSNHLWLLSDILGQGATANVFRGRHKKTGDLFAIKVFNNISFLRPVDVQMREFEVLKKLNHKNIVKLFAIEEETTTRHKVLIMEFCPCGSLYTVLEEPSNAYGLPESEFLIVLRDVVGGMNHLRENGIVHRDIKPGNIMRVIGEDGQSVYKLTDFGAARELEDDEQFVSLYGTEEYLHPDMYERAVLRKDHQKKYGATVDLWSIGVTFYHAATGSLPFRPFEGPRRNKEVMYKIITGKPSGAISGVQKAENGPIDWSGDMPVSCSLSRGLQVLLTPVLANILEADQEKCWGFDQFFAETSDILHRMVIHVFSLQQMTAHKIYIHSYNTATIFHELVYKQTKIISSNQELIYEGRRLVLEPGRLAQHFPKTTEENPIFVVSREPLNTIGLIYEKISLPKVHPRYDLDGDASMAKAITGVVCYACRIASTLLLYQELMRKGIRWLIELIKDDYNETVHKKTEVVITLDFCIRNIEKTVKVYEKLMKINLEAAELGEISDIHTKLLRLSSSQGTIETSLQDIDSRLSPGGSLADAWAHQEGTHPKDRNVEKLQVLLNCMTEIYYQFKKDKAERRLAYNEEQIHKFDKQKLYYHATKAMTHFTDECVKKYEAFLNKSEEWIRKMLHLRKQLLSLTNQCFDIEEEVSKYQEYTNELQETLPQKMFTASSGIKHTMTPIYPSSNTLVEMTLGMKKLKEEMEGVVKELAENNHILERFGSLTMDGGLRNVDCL

The term IC50 denotes the midpoint of a concentration-inhibition curve. In the case of `N#Cc1cc(-c2ncnc3[nH]c(-c4ccc(C5CCN(CC(F)F)CC5)cc4)nc23)ccc1OC1CCN(C(=O)CO)CC1` [Example 255, 5-(8-(4-(1-(2,2-difluoroethyl)piperidin-4-yl)phenyl)-9H-purin-6-yl)-2-((1-(2-hydroxyacetyl)piperidin-4-yl)oxy)benzonitrile], the IC50 in test [1] is 3.48 nM; in test [2] it was 1.53 nM.
With `N#Cc1cc(-c2ccnc3[nH]c(-c4ccc(N5CCN(C6COC6)CC5)cc4)cc23)ncc1OC1CCN(C(=O)CO)CC1(F)F` (stereo not drawn) [Example 176, 5-((3,3-difluoro-1-(2-hydroxyacetyl)piperidin-4-yl)oxy)-2-(2-(4-(4-(oxetan-3-yl)piperazin-1-yl)phenyl)-1H-pyrrolo[2,3-b]pyridin-4-yl)isonicotinonitrile], the results for the IC50 in test [1] and in test [2] were 1.44 nM and 1.81 nM, respectively.
For `CS(=O)(=O)N1CCN(c2ccc(-c3cc4c(-c5ccc(OC6CCOCC6)c(C#N)c5)ncnc4[nH]3)cc2)CC1` [Example 215, 5-(6-(4-(4-(methylsulfonyl)piperazin-1-yl)phenyl)-7H-pyrrolo[2,3-d]pyrimidin-4-yl)-2-((tetrahydro-2H-pyran-4-yl)oxy)benzonitrile], the IC50 in test [1] came out at 3.15 nM; in test [2] it was 1.42 nM.
Regarding `CC(C)(O)c1ccc(-c2cc3c(-c4ccc(OC5CCOCC5)c(C#N)c4)ncnc3[nH]2)cc1` [Example 109, 5-(6-(4-(2-hydroxypropan-2-yl)phenyl)-7H-pyrrolo[2,3-d]pyrimidin-4-yl)-2-((tetrahydro-2H-pyran-4-yl)oxy)benzonitrile], the values for the IC50 in test [1] and in test [2] were 4.99 nM and 0.821 nM, respectively.
As to `CC(C)(C)OC(=O)N1CC[C@@H](Oc2ccc(-c3ncnc4[nH]c(-c5ccc(N6CCOCC6)cc5)nc34)cc2C#N)C1` [Example 206, (R)-tert-butyl 3-(2-cyano-4-(8-(4-morpholinophenyl)-9H-purin-6-yl)phenoxy)pyrrolidine-1-carboxylate], the IC50 in test [1] and in test [2] was more than 1000 nM each time.
On to `N#Cc1cc(-c2ncnc3[nH]c(-c4ccc(CC(=O)O)cc4)cc23)ccc1OC1CCOCC1` [Example 168, 2-(4-(4-(3-Cyano-4-((tetrahydro-2H-pyran-4-yl)oxy)phenyl)-7H-pyrrolo[2,3-d]pyrimidin-6-yl)phenyl)acetic acid], for which the IC50 turned out to be 15.7 nM in test [1] and 13.7 nM in test [2].
Take `N#Cc1cc(-c2ncnc3[nH]c(-c4ccc(C(=O)N5CCCC5)cc4)cc23)ccc1OC1CCOCC1` [Example 185, 5-(6-(4-(pyrrolidine-1-carbonyl)phenyl)-7H-pyrrolo[2,3-d]pyrimidin-4-yl)-2-((tetrahydro-2H-pyran-4-yl)oxy)benzonitrile]: the values for the IC50 in test [1] and in test [2] were 5.39 nM and 1.33 nM, respectively.
With `N#Cc1cc(-c2ccnc3[nH]c(-c4ccc(N5CCOCC5)cc4)cc23)ccc1OC1CCN(C(=O)CO)CC1` [Example 19, 2-((1-(2-hydroxyacetyl)piperidin-4-yl)oxy)-5-(2-(4-morpholinophenyl)-1H-pyrrolo[2,3-b]pyridin-4-yl)benzonitrile], the IC50 in test [1] turned out to be 3.72 nM; in test [2] it was 1.9 nM.
For `CC1CN(c2ccc(-c3nc4c(-c5ccc(OC6CCN(C(=O)CO)CC6)c(C#N)c5)ncnc4[nH]3)cc2)CCN1CCF` (stereo not drawn) [Example 256, 5-(8-(4-(4-(2-fluoroethyl)-3-methylpiperazin-1-yl)phenyl)-9H-purin-6-yl)-2-((1-(2-hydroxyacetyl)piperidin-4-yl)oxy)benzonitrile], the 50% inhibitory concentration (IC50) stood at 1.79 nM in test [1] and 2.4 nM in test [2].
`N#Cc1cc(-c2ccnc3[nH]c(-c4ccc(N5CCOCC5)cc4)nc23)ccc1OC1CCN(C(=O)CO)CC1` [Example 198, 2-((1-(2-hydroxyacetyl)piperidin-4-yl)oxy)-5-(2-(4-morpholinophenyl)-3H-imidazo[4,5-b]pyridin-7-yl)benzonitrile]: the IC50 in test [1] worked out at 3.42 nM; in test [2] it was 2.3 nM.
For the molecule `N#Cc1cc(-c2ccnc3[nH]c(-c4cc[nH]c(=O)c4)cc23)ccc1OC1CCOCC1` [Example 217, 5-(2-(2-oxo-1,2-dihydropyridin-4-yl)-1H-pyrrolo[2,3-b]pyridin-4-yl)-2-((tetrahydro-2H-pyran-4-yl)oxy)benzonitrile], the IC50 amounted to 34.7 nM in test [1] and 19.3 nM in test [2].
Taken in the same sequence, the figures for `N#Cc1cc(-c2ncnc3[nH]c(-c4ccc(OCCN5CCCC5)cc4)cc23)ccc1N1CC(O)C1` [Example 227, 2-(3-hydroxyazetidin-1-yl)-5-(6-(4-(2-(pyrrolidin-1-yl)ethoxy)phenyl)-7H-pyrrolo[2,3-d]pyrimidin-4-yl)benzonitrile] were 70.2 nM and 42.4 nM.
On to `N#Cc1cc(-c2ccnc3[nH]c(-c4ccc(N5CCN(C(=O)CO)CC5)cc4)cc23)ccc1OC1CCOCC1` [Example 56, 5-(2-(4-(4-(2-hydroxyacetyl)piperazin-1-yl)phenyl)-1H-pyrrolo[2,3-b]pyridin-4-yl)-2-((tetrahydro-2H-pyran-4-yl)oxy)benzonitrile], for which the IC50 in test [1] was 15.8 nM; in test [2] it was 2.02 nM.
As to `N#Cc1cc(-c2ncnc3[nH]c(-c4cccc(CN5CCOCC5)c4)cc23)ccc1OC1CCN(C(=O)CO)CC1` [Example 184, 2-((1-(2-hydroxyacetyl)piperidin-4-yl)oxy)-5-(6-(3-(morpholinomethyl)phenyl)-7H-pyrrolo[2,3-d]pyrimidin-4-yl)benzonitrile], the IC50 in test [1] amounted to 3.43 nM; in test [2], 4.99 nM.
For the molecule `COc1cc(N2CCOCC2)ccc1-c1cc2c(-c3ccc(OC4CCOCC4)c(C#N)c3)ncnc2[nH]1` [Example 137, 5-(6-(2-methoxy-4-morpholinophenyl)-7H-pyrrolo[2,3-d]pyrimidin-4-yl)-2-((tetrahydro-2H-pyran-4-yl)oxy)benzonitrile], the IC50 in test [1] was found to be 47.5 nM; in test [2] it was 9.78 nM.
Turning to `N#Cc1cc(-c2ccnc3[nH]c(-c4ccc(N)nc4)cc23)ccc1OC1CCOCC1` [Example 11, 5-(2-(6-aminopyridin-3-yl)-1H-pyrrolo[2,3-b]pyridin-4-yl)-2-((tetrahydro-2H-pyran-4-yl)oxy)benzonitrile], the IC50 in test [1] is 9.51 nM; in test [2], 5.53 nM.
Taken in the same sequence, the figures for `N#Cc1cc(-c2ncnc3[nH]c(-c4ccc(OCCN5CCCC5)cc4)cc23)ccc1OC1CCOCC1` [Example 226, 5-(6-(4-(2-(pyrrolidin-1-yl)ethoxy)phenyl)-7H-pyrrolo[2,3-d]pyrimidin-4-yl)-2-((tetrahydro-2H-pyran-4-yl)oxy)benzonitrile] were 1.8 nM and 1.24 nM.
On to `N#Cc1cc(-c2cc3c(-c4ccc(OC5CCOCC5)c(C#N)c4)ccnc3[nH]2)ccc1OC1CCOCC1` [Example 62, 5,5′-(1H-pyrrolo[2,3-b]pyridine-2,4-diyl)bis(2-((tetrahydro-2H-pyran-4-yl)oxy)benzonitrile)], for which the IC50 in test [1] was 25.3 nM; in test [2], 24.1 nM.
Turning to `N#Cc1cc(-c2ncnc3[nH]c(-c4ccc(N5CCOCC5)cc4)cc23)ccc1OCC1CC1` [Example 102, 2-(cyclopropylmethoxy)-5-(6-(4-morpholinophenyl)-7H-pyrrolo[2,3-d]pyrimidin-4-yl)benzonitrile], the IC50 in test [1] and in test [2] was more than 1000 nM throughout.
For `CS(=O)(=O)c1ccc(-c2ccnc3[nH]c(-c4ccc(N5CCOCC5)cc4)cc23)cc1C#N` [Example 192, 2-(methylsulfonyl)-5-(2-(4-morpholinophenyl)-1H-pyrrolo[2,3-b]pyridin-4-yl)benzonitrile], the IC50 in test [1] stood at 1000 nM; in test [2], 275 nM.
Taken in the same sequence, the figures for `N#CCC(=O)N1CC[C@@H](Oc2ccc(-c3ccnc4[nH]c(-c5ccc(N6CCOCC6)cc5)cc34)cc2C#N)C1` [Example 16, (R)-2-((1-(2-cyanoacetyl)pyrrolidin-3-yl)oxy)-5-(2-(4-morpholinophenyl)-1H-pyrrolo[2,3-b]pyridin-4-yl)benzonitrile] were 13.8 nM and 4.32 nM.
With `CC(C)Oc1ccc(-c2ccnc3[nH]c(-c4ccc(N5CCOCC5)cc4)cc23)cc1C#N` [Example 71, 2-isopropoxy-5-(2-(4-morpholinophenyl)-1H-pyrrolo[2,3-b]pyridin-4-yl)benzonitrile], the results for the IC50 in test [1] and in test [2] were 358 nM and 59.3 nM, respectively.
For `N#Cc1cc(-c2ccnc3[nH]c(C#CCO)cc23)ccc1OC1CCOCC1` [Example 148, 5-(2-(3-hydroxyprop-1-yn-1-yl)-1H-pyrrolo[2,3-b]pyridin-4-yl)-2-((tetrahydro-2H-pyran-4-yl)oxy)benzonitrile], the IC50 was determined as 205 nM in test [1] and 184 nM in test [2].
Regarding `N#Cc1cc(-c2ncnc3[nH]c(-c4ccc(N5CCOCC5)cc4)nc23)ccc1O[C@@H]1CCNC1` [Example 207, (R)-5-(8-(4-morpholinophenyl)-9H-purin-6-yl)-2-(pyrrolidin-3-yloxy)benzonitrile], the values for the IC50 in test [1] and in test [2] were 113 nM and 15.8 nM, respectively.
Consider `N#Cc1cc(-c2ccnc3[nH]c(-c4ccc(N5CCOCC5)cc4)nc23)ccc1O[C@@H]1CCN(C(=O)CO)C1` [Example 196, (R)-2-((1-(2-hydroxyacetyl)pyrrolidin-3-yl)oxy)-5-(2-(4-morpholinophenyl)-3H-imidazo[4,5-b]pyridin-7-yl)benzonitrile], for which the IC50 in test [1] was 12.7 nM; in test [2], 4.5 nM.
`O=C1NCc2cc(-c3cc4c(-c5ccc6c(c5)CNC6=O)ncnc4[nH]3)ccc21` [Example 224, 5,5′-(7H-pyrrolo[2,3-d]pyrimidine-4,6-diyl)bis(isoindolin-1-one)]: the IC50 in test [1] and in test [2] was 1000 nM throughout.
In the case of `N#Cc1cc(-c2ccnc3[nH]c(C4=CCN(C5COC5)C4)cc23)ccc1OC1CCOCC1` [Example 178, 5-(2-(1-(oxetan-3-yl)-2,5-dihydro-1H-pyrrol-3-yl)-1H-pyrrolo[2,3-b]pyridin-4-yl)-2-((tetrahydro-2H-pyran-4-yl)oxy)benzonitrile], the values for the IC50 in test [1] and in test [2] were 18.3 nM and 7.82 nM, respectively.
